Measured values as given in article PMC6152226, “Composition and Antioxidant, Antienzymatic and Antimicrobial Activities of Volatile Molecules from Spanish Salvia lavandulifolia (Vahl) Essential Oils” (Molecules : A Journal of Synthetic Chemistry and Natural …, 2017).
Values after ≈ are worked out from the molar mass of the structure shown. Where a name gives a salt, the structure may show the parent alone. Read-outs that look alike come from different tables or passages of the source.

What was measured:
DPPH radical method = settings: individual compounds; maximum assay concentration 100 mM
Protocol: (§1) Five antioxidant methods were performed with SlEOs and their main individual compounds in triplicate. In the oxygen radical absorbance capacity (ORAC) assay, peroxyl radicals are produced by 2,2′-Azobis(2-methylpropionamidine) dihydrochloride (AAPH), which reacts with fluorescein giving a non-fluorescent compound [61]. The antioxidants are able to scavenge these peroxyl radicals. Trolox was used as the reference antioxidant. The 2,2-diphenyl-1-picrylhydrazyl (DPPH) and 2,2′-azino-bis(3-ethylbenzothiazoline-6-sulphonic acid) (ABTS) methods measure the bleaching produced by the reduction of the coloured DPPH and ABTS radicals. Trolox was used as the reference antioxidant. The RdP method measure the ability to reduce ferric ions, according to the method of Oyaizu. Ascorbic acid was the reference antioxidant used in this method. The ChP method measured the ability to chelate Fe^2+ ion, following the method of Miguel et al.. EDTA was used as reference antioxidant. The SlEOs were diluted in 100% ethanol in the DPPH, ABTS, RdP and ChP methods, whereas in the ORAC method, SlEOs were diluted in 15% ethanol to obtain a final concentration of 5% ethanol in the reaction medium. All measurements were made at the end-point of the reaction, except in the ORAC method (Figure S5).

[1] = test system: Candida albicans ATCC 10231; assay: Broth microdilution MIC and MFC; format: cell-based
Protocol: (§2) The following test microorganisms used in this work were acquired from Sigma-Aldrich: Pseudomonas aeruginosa ATCC 9027, Escherichia coli ATCC 8739, Staphylococcus aureus ATCC 6538, and Candida albicans ATCC 10231. The stock cultures were preserved in TSB or YPD with 15% glycerol, for bacteria and yeast cells, respectively, at −80 °C. Isolated colonies from an 18- to 24-h agar plate were transferred to MHB for bacteria and RPMI-1640 for C. albicans.
(§3) MIC were determined using the broth microdilution method in 96-well microplates, according to the M07-A10 [69] standard for bacteria and the M27-A3 [70] for Candida. Briefly, two-fold dilutions of a 40 µL/mL SlEOs were prepared to obtain a final concentration range of 0.08–20 µL/mL with 0.5% Tween®80 and 2.5% DMSO. The antimicrobial activities of main compounds were also tested in the concentration range of 0.12–15 mM with 0.5% Tween®80 and 2.5% DMSO as solvent. The final strain concentration was 5 × 10^5 CFU/mL in MHB for the bacteria and 0.5−2.5 × 10^3 in RPMI-1640 for the yeast. These plates were incubated for 24 h for bacteria and 48 h for Candida, both at 35 ± 1 °C, under aerobic conditions on a plate shaker at 100 rpm. Streptomycin (0.06–8.00 µg/mL) and fluconazole (0.13–16 µg/mL) were used as reference antibacterial and antifungal compound, respectively. […] MIC is defined as the lowest concentration of EO or individual compound with no visible growth of microorganisms, at the end of the incubation period. […] All determinations were carried out in triplicate.

[2] = Chelating power (ChP) method; settings: individual compounds; maximum assay concentration 100 mM
Protocol: as §1

[3] = Reducing power (RdP) method; settings: individual compounds; maximum assay concentration 100 mM
Protocol: as §1

ABTS radical method = settings: individual compounds; maximum assay concentration 100 mM
Protocol: as §1

[4] = test system: Escherichia coli ATCC 8739; assay: Broth microdilution MIC and MBC; format: cell-based
Protocol: as §2, §3

[5] = test system: Staphylococcus aureus ATCC 6538; assay: Broth microdilution MIC and MBC; format: cell-based
Protocol: as §2, §3

[6] = Oxygen radical absorbance capacity (ORAC) assay; settings: individual compounds; maximum assay concentration 100 mM
Protocol: as §1

LOX = target: T1, LOX (Glycine max, UniProt P08170); assay: LOX inhibition assay; format: biochemical, Glycine max (soybean)
T1 construct: purchased Sigma-Aldrich
Protocol: A LOX preparation from Glycine max (soybean) was acquired from Sigma-Aldrich. LOX inhibitory activity was determined as previously reported, based on the absorption at 234 nm of the hydroperoxyde conjugated dienes (ε = 25,000 M^−1 cm^−1), which are generated from the oxidation of linoleic acid in the presence of oxygen and LOX. This assay was carried out on a double beam Lambda 35 spectrophotometer (PerkinElmer, Madrid, Spain) with the UV-Winlab software, at 25 °C.
The DI in both antienzymatic assays were calculated using Equation (1):(1) DI (%)= ν0−νi/ν0 × 100 where v0 and v1 are the steady state rates without and with inhibitor, respectively. The inhibitions of LOX were reported as DI at 150 µg/mL of each SlEO. […] To calculate the IC50 values, data of DI (%) of seven different concentrations of each SlEO were plotted and fitted by non-linear regression according to Equation (2) using Sigma Plot software (systatsoftware.com) (Figure S6). The inhibitions of LOX and AChE by individual compounds were reported as IC50 or DI, depending on their inhibition capacities and solubilities.
(2) DI (%)= DImax [I]0/IC50+ [I]0

T1 sequence (P08170 whole entry): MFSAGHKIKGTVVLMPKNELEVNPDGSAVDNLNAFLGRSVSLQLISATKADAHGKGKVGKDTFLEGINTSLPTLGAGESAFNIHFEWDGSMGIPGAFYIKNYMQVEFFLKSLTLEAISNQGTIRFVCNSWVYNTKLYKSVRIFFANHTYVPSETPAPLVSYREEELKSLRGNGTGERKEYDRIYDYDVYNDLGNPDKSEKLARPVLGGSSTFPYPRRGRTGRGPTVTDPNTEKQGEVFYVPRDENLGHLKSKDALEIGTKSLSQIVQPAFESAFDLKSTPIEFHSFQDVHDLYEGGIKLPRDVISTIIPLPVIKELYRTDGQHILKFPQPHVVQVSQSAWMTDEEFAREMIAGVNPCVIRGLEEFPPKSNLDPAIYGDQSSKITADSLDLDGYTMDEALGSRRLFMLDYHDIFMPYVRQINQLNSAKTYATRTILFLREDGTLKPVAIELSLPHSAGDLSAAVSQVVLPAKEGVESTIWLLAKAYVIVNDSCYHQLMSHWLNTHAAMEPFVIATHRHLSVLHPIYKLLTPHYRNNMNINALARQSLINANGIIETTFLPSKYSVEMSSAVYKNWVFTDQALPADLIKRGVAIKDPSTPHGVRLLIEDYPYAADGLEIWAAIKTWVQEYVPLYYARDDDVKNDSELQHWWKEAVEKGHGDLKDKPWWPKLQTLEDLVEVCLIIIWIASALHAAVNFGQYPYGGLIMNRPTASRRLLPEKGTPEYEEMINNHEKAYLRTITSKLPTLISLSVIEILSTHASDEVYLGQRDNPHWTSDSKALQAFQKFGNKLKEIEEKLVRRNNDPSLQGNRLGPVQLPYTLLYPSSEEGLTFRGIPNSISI

SMILES | DPPH (DPPH radical method) | MIC ([1]; ATCC10231, 48 h, read-out: MIC) | MFC ([1]; ATCC10231, read-out: MFC) | ChP [2] | RdP [3] | ABTS (ABTS radical method) | MIC ([4]; ATCC8739, 24 h, read-out: MIC) | MBC ([4]; ATCC8739, read-out: MBC) | MIC ([5]; ATCC6538, 24 h, read-out: MIC) | MBC ([5]; ATCC6538, read-out: MBC) | ORAC [6] | further results
CC1(C)C2CCC1(C)C(O)C2 (stereo not drawn) [Borneol] | N/D (Activity lower than 0.05 units at a maximum assay concentration of 100 mM) | 600 µg/mL (≈ 3.89 mM) | 600 µg/mL (≈ 3.89 mM) | N/D (Activity lower than 0.05 units at a maximum assay concentration of 100 mM) | N/D (Activity lower than 0.05 units at a maximum assay concentration of 100 mM) | N/D (Activity lower than 0.05 units at a maximum assay concentration of 100 mM) | 1100 µg/mL (≈ 7.13 mM) | 1100 µg/mL (≈ 7.13 mM) | 300 µg/mL (≈ 1.94 mM) | 300 µg/mL (≈ 1.94 mM) | N/D (Activity lower than 0.05 units at a maximum assay concentration of 100 mM) | –
CC(=O)OC1CC2CCC1(C)C2(C)C (stereo not drawn) [Bornyl acetate] | N/D (Activity lower than 0.05 units at a maximum assay concentration of 100 mM) | > 2900 µg/mL | > 2900 µg/mL | N/D (Activity lower than 0.05 units at a maximum assay concentration of 100 mM) | N/D (Activity lower than 0.05 units at a maximum assay concentration of 100 mM) | N/D (Activity lower than 0.05 units at a maximum assay concentration of 100 mM) | > 2900 µg/mL | > 2900 µg/mL | 2900 µg/mL | > 2900 µg/mL | N/D (Activity lower than 0.05 units at a maximum assay concentration of 100 mM) | IC50 (LOX): 380 µM
OC(Cn1cncn1)(Cn1cncn1)c1ccc(F)cc1F [Fluconazole, reference compound] | – | 4 µg/mL (≈ 0.0131 mM) | 4 µg/mL (≈ 0.0131 mM) | – | – | – | – | – | – | – | – | –
C=CC(C)(CCC=C(C)C)OC(C)=O (stereo not drawn) [Linalyl acetate] | N/D (Activity lower than 0.05 units at a maximum assay concentration of 100 mM) | – | – | 27.4 ± 2.1 µmol EDTAE/mmol X | N/D (Activity lower than 0.05 units at a maximum assay concentration of 100 mM) | 0.1 ± 0.0 µmol TE/mmol X | – | – | – | – | 207.1 ± 13.2 µmol TE/mmol X | MFC ([1]; ATCC10231): > 3000 µg/mL; MIC ([1]; ATCC10231, 48 h): > 3000 µg/mL; MBC ([4]; ATCC8739): > 3000 µg/mL; MIC ([4]; ATCC8739, 24 h): > 3000 µg/mL; MBC ([5]; ATCC6538): > 3000 µg/mL; MIC ([5]; ATCC6538, 24 h): 3000 µg/mL
C=CC(=C)CCC=C(C)C [Myrcene] | N/D (Activity lower than 0.05 units at a maximum assay concentration of 100 mM) | > 2100 µg/mL | > 2100 µg/mL | 2.5 ± 0.2 µmol EDTAE/mmol X | N/D (Activity lower than 0.05 units at a maximum assay concentration of 100 mM) | N/D (Activity lower than 0.05 units at a maximum assay concentration of 100 mM) | > 2100 µg/mL | > 2100 µg/mL | > 2100 µg/mL | > 2100 µg/mL | N/D (Activity lower than 0.05 units at a maximum assay concentration of 100 mM) | –
CC(C)C12CCC(C)(O)C1C2 (stereo not drawn) [Sabinene hydrate] | N/D (Activity lower than 0.05 units at a maximum assay concentration of 100 mM) | – | – | 6.7 ± 0.6 µmol EDTAE/mmol X | N/D (Activity lower than 0.05 units at a maximum assay concentration of 100 mM) | 0.5 ± 0.0 µmol TE/mmol X | – | – | – | – | N/D (Activity lower than 0.05 units at a maximum assay concentration of 100 mM) | –
C=C1CCC2(C(C)C)CC12 (stereo not drawn) [Sabinene] | – | > 2000 µg/mL | > 2000 µg/mL | – | – | – | > 2000 µg/mL | > 2000 µg/mL | > 2000 µg/mL | > 2000 µg/mL | – | –
[H]/N=C(/N)N[C@H]1[C@H](O)[C@@H](O)[C@H](O[C@@H]2O[C@@H](C)[C@](O)(C=O)[C@H]2O[C@@H]2O[C@@H](CO)[C@H](O)[C@@H](O)[C@@H]2NC)[C@@H](N/C(N)=N\[H])[C@@H]1O [Streptomycin sulfate, reference compound] | – | – | – | – | – | – | 1 µg/mL | 1 µg/mL | 1 µg/mL | 1 µg/mL | – | –
Cc1ccc(C(C)C)cc1 [p-Cymene] | N/D (Activity lower than 0.05 units at a maximum assay concentration of 100 mM) | 500 µg/mL (≈ 3.73 mM) | 500 µg/mL (≈ 3.73 mM) | 20.1 ± 1.6 µmol EDTAE/mmol X | N/D (Activity lower than 0.05 units at a maximum assay concentration of 100 mM) | 0.1 ± 0.0 µmol TE/mmol X | 1000 µg/mL (≈ 7.45 mM) | 2000 µg/mL (≈ 14.9 mM) | > 2000 µg/mL | > 2000 µg/mL | N/D (Activity lower than 0.05 units at a maximum assay concentration of 100 mM) | –
C/C1=C\CC/C(C)=C/CC(C)(C)/C=C/C1 [α-Humulene] | – | – | – | – | – | – | – | – | – | – | – | MFC [1]: >3000 µg/mL; MIC ([1]; 48 h): >3000 µg/mL; MBC [4]: >3000 µg/mL; MIC ([4]; 24 h): >3000 µg/mL; MBC [5]: 3000 µg/mL (≈ 14.7 mM); MIC ([5]; 24 h): 1600 µg/mL (≈ 7.83 mM)
CC1=CC=C(C(C)C)CC1 [α-Terpinene] | 0.3 ± 0.0 µmol TE/mmol X | – | – | 62.2 ± 4.7 µmol EDTAE/mmol X | 1.9 ± 0.1 µmol AAE/mmol X | 4.0 ± 0.2 µmol TE/mmol X | – | – | – | – | N/D (Activity lower than 0.05 units at a maximum assay concentration of 100 mM) | –
C=C1CC/C=C(\C)CC[C@@H]2[C@@H]1CC2(C)C [β-Caryophyllene, (E)-β-Caryophyllene] | N/D (Activity lower than 0.05 units at a maximum assay concentration of 100 mM) | > 3100 µg/mL | > 3100 µg/mL | 7.1 ± 0.5 µmol EDTAE/mmol X | N/D (Activity lower than 0.05 units at a maximum assay concentration of 100 mM) | N/D (Activity lower than 0.05 units at a maximum assay concentration of 100 mM) | > 3100 µg/mL | > 3100 µg/mL | > 3100 µg/mL | > 3100 µg/mL | 394.7 ± 14.5 µmol TE/mmol X | –
C=C1CCC2CC1C2(C)C (stereo not drawn) [β-Pinene] | N/D (Activity lower than 0.05 units at a maximum assay concentration of 100 mM) | > 2000 µg/mL | > 2000 µg/mL | 1.8 ± 0.1 µmol EDTAE/mmol X | N/D (Activity lower than 0.05 units at a maximum assay concentration of 100 mM) | 0.1 ± 0.0 µmol TE/mmol X | > 2000 µg/mL | > 2000 µg/mL | > 2000 µg/mL | > 2000 µg/mL | 26.6 ± 1.6 µmol TE/mmol X | –
CC1=CCC(C(C)C)=CC1 [γ-Terpinene] | 0.3 ± 0.0 µmol TE/mmol X | – | – | 0.3 ± 0.0 µmol EDTAE/mmol X | 0.3 ± 0.0 µmol AAE/mmol X | 2.5 ± 0.1 µmol TE/mmol X | – | – | – | – | 171.4 ± 10.3 µmol TE/mmol X | –
